Data published in patent publication US20240225981A1, “Synthesized Molecule of Solketal Esters from Palm Kit Oil and Glycerin for Cosmetic and Agricultural Formulations” (BRASIL BIO FUELS S.A, priority 2023, published 2024).
“Also recorded” adds a separate entry of the source.

Tests used:
eye = experiment: Eye irritation tests (OECD and GHS); format: in vivo; conditions: OECD and GHS standards
Description: In eye irritation tests, the product was classified as non-irritating according to OECD and GHS standards.

skin = experiment: Skin irritation tests (OECD and GHS); format: in vivo; conditions: OECD and GHS standards; non-irritating in 2 tests, one test mild
Description: Two new batches of cocoyl glyceryl solketal were sent to confirm dermal irritation tests.

What does the source list for Cocoyl glyceryl solketal?
Eye irritation classification (eye): non-irritating; Skin irritation classification (skin): non-irritating; also recorded: mild dermal irritation
